{
  "source": "patent US9879058B2",
  "about": "“Use of compounds that selectively modulate astrocytic release of substances through hemichannels of connexins and pannexins, without influencing gap junctions, for the treatment of psychiatric disorders” (Universidad Andres Bello, priority 2012, dated 2018)",
  "tested_on": "Sprague Dowley rats",
  "assay": "Auditory fear conditioning with microinfusion into the basolateral amygdala",
  "type": "in vivo, rat",
  "method": "A. Animals: All procedures involving animals were in accordance to NIH guidelines and with approval of the bioethical committee of the Universidad Andrés Bello. Sprague Dowley rats (˜60 d old, ˜250 g) were caged individually at 22° C., 12/12 h light/dark cycle. The rats remained in their home box throughout the study, and were removed only briefly for drug microinfusion. B. Drugs: TAT-Cx43L2 ([…] (SEQ ID NO: 1), LifeTein, South Plainfield, N.J., USA, >90% purity) was dissolved in PBS to yield final solutions of 1 mM, 100 μM, 10 μM, 1 μM or 100 nM. Unless stated otherwise, the concentration used for microinfusions of TAT-Cx43L2 was 1 mM. As a control, TAT-Cx43L2^H126K/I130N was used at 1 mM. Gap27 (AnaSpec, Fremont, Calif., USA, >95% purity) and Gap27 scramble were dissolved to a final concentration of 1 mM. For the recovery cocktail, 100 mM glutamate (Sigma), D-serine (200 nM), glutamine (100 mM), ATP (100 μM), lactate (10 mM) and glycine (100 nM) were diluted in sterile saline. C. Apparatus: All behavioral essays were performed in a sound attenuating cubicle. Conditioning and tone testing were conducted in different chambers. For conditioning, rats were placed in a Plexiglas chamber with a metal grid floor (40 cm×40 cm×40 cm). The chamber was dimly illuminated by a red light. For testing, rats were placed in a different Plexiglas chamber without the metal grid (60 cm×40 cm) dimly illuminated by a white light bulb. A video camera was mounted at the top of each chamber to allow digital recording throughout the experiments. D. Surgery and histology: Under ketamine/xylazine anesthesia ([…], respectively), rats were stereotaxically implanted with bilateral 22-gauge stainless steel cannulas aimed 1.0 mm above the basolateral amygdala (3.0 mm posterior to Bregma, 5.3 mm lateral to the midline, and 8.0 mm ventral to the skull surface (Paxinos, G., Watson, C. (1998). The Rat Brain in Stereotaxic Coordinates; Press A, editor. San Diego). The cannulas were fixed with acrylic dental cement and secured by 4 skull screws. A stylus was placed inside the guide cannula to prevent clogging. Rats were given at least 7 days to recover before experimental procedures began.\nIn all experiments, stylus was removed from the guide cannula, and a 28-gauge injection cannula was inserted through the guide cannula, extending 1.0 mm beyond its tip into the BLA. Drugs were infused slowly via the injection cannula, connected by PE20 tubing to Hamilton microsyringes driven by a microinfusion pump. Infusions were of 0.25 μl per hemisphere at a rate of 0.32 μl/min. Following drug infusion, injecting cannulaes were left in place for 10 minutes to allow drug diffusion away from the cannula tip. Cannula placement and maximal diffusion was verified by infusing 0.5 μl of India ink in a group of 5 rats. The maximal diffusion spread observed included only lateral and basal amygdala nuclei. At the end of all experiments, animals were anesthetized as above and perfused intracardially with saline, 4% buffered paraformaldehyde. Brains were extracted and postfixed in 30% sucrose until density equaled that of sucrose. […] Animals with histological lesions beyond the size of the cannula tip and guide cannula diameter were excluded from the analysis.\nE. Behavioral procedures: The conditioning is based on the animal learning that a previously neutral stimulus (a conditioned stimulus, CS; e.g. an innocuous sound) becomes predictive of a stressful stimulus (unconditioned stimulus, US; e.g. footshock). In all of experiments, rats were habituated to handling during the 7 recovery days and also habituated to the training and testing chambers for 3 days, 10 min each day. On the conditioning day, the animals were left in the chamber for 3 minutes before beginning of the training. Each training session consisted of 3 CS-US pairings in 30 s intervals. […]",
  "key": {"[1]": {"settings": "1 mM into BLA 10 min before training"}},
  "note": "“Also recorded” adds a separate entry of the source. No end group written: not given here.",
  "data": [
    {"sequence": "YGRKKRRQRRRDGANVDMHLKQIEIKKFKYGIEEHGK [TAT-Cx43L2, synthetic cell-permeable peptide corresponding to the Cx43L2 region (aa 119-144) of the cytoplasmic loop of Cx43]", "values": [
      {"measurement": "long term fear memory (freezing to tone) 24 h after training", "setting": "[1]", "result": "strongly impaired fear conditioning memory consolidation; also recorded: complete amnesia"},
      {"measurement": "short term memory (freezing to tone between the 3 pairings during training)", "setting": "[1]", "result": "not affected; also recorded: unaffected short term memory"},
      {"measurement": "concentration dependence of amnesic effect", "setting": "microinfusion into BLA", "result": "concentration dependent"},
      {"measurement": "lower concentration still capable of inducing amnesic effects", "setting": "microinfusion into BLA", "result": 10, "unit": "nM"},
      {"measurement": "memory when injected 6 h after training", "setting": "microinjection into BLA 6 h after learning", "result": "had no effects on memory when injected 6 h after training; also recorded: no memory deficits"},
      {"measurement": "learning capacity on retraining", "setting": "retrained 48 h after the initial conditioning", "result": "recovered their capacity to learn; also recorded: recovered their learning capacity"}
    ]}
  ]
}
